The first experiment addresses Human immunodeficiency virus type 1 reverse transcriptase (Human immunodeficiency virus 1, UniProt Q72547). Description: Inhibition of HIV-1 reverse transcriptase after 1 hr by colorimetry.
As for `CC1=N/C(=C/c2ccccc2O)C(=O)N1Cc1ccncc1`, half-maximal inhibition (IC50) required 3.5 µM. As to `CC1=N/C(=C/c2ccco2)C(=O)N1Cc1ccncc1`, the IC50 (as a rule, the concentration at which inhibition is half-maximal) came to 2.5 µM. The same measure, in the same setting: then `O=C1/C(=C\c2ccc(Cl)cc2Cl)N=C(c2ccccc2)N1Cc1ccncc1`, with 3.8 µM; and `CC1=N/C(=C/c2ccc(Cl)cc2)C(=O)N1Cc1ccncc1`, with 3.9 µM.

Another experiment deals with Human immunodeficiency virus type 1 reverse transcriptase (Human immunodeficiency virus 1) (UniProt Q72547). Briefly: Inhibition of HIV-1 reverse transcriptase at 20 ug after 1 hr by colorimetry.
Turning to `COc1ccc(/C=C2/N=C(C)N(Cc3ccncc3)C2=O)cc1`, the inhibition (usually the share of the control response that was lost under treatment) was found to be 59.2%. Consider `O=C1/C(=C\c2ccccc2)N=C(c2ccccc2)N1Cc1ccncc1`, for which the inhibition came out at 54.4%. With `COc1ccc(/C=C2/N=C(c3ccccc3)N(Cc3ccncc3)C2=O)cc1`, the inhibition was 50%. On the same count and under the same terms, then `CN(C)c1ccc(/C=C2/N=C(c3ccccc3)N(Cc3ccncc3)C2=O)cc1`, with 36.8%; and `C/C=C1/N=C(C)N(Cc2ccncc2)C1=O`, with 64.3%; and `COc1cc(/C=C2/N=C(c3ccccc3)N(Cc3ccncc3)C2=O)cc(OC)c1OC`, with 57.8%. Same read-out and setting: then `CC1=N/C(=C/c2c[nH]c3ccccc23)C(=O)N1Cc1ccncc1`, with 58.7%.

The compound `COc1cc(/C=C2/N=C(c3ccccc3)N(Cc3ccncc3)C2=O)ccc1O` displayed an inhibition of 50.2%. On the same count and under the same terms, then `O=C1/C(=C\c2ccc(Cl)cc2)N=C(c2ccccc2)N1Cc1ccncc1`, with 47%; and `O=C1/C(=C\c2ccco2)N=C(c2ccccc2)N1Cc1ccncc1`, with 62.5%. On the same count and under the same terms, then `CC1=N/C(=C/c2ccccc2O)C(=O)N1Cc1ccncc1`, with 74.2%. Same read-out and setting: then `CC1=N/C(=C/c2ccccc2)C(=O)N1Cc1ccncc1`, with 60.7%. In turn, `CC1=N/C(=C/c2ccco2)C(=O)N1Cc1ccncc1` registered an inhibition of 92.7%. On the same count and under the same terms, then `CC1=N/C(=C/c2ccc(N(C)C)cc2)C(=O)N1Cc1ccncc1`, with 58.1%. Same read-out and setting: then `O=C1/C(=C\c2ccc(Cl)cc2Cl)N=C(c2ccccc2)N1Cc1ccncc1`, with 70%; and `CC1=N/C(=C/c2ccc(Cl)cc2)C(=O)N1Cc1ccncc1`, with 69.8%. Same read-out and setting: then `CC1=N/C(=C/c2ccc(Cl)cc2Cl)C(=O)N1Cc1ccncc1`, with 62.8%; and `C/C=C1/N=C(c2ccccc2)N(Cc2ccncc2)C1=O`, with 61.5%; and `COc1cc(/C=C2/N=C(C)N(Cc3ccncc3)C2=O)cc(OC)c1OC`, with 67%. As to `O=C1/C(=C\c2ccccc2O)N=C(c2ccccc2)N1Cc1ccncc1`, the inhibition is 43.2%.

Source of the values: ChEMBL document CHEMBL2021857, “Synthesis, biological activity and docking study of imidazol-5-one as novel non-nucleoside HIV-1 reverse transcriptase inhibitors” (Bioorg Med Chem, 2012).
